# Experimental data taken from patent US9539232B1, “Calebin A for osteoporosis” (priority 2016, dated 2017).
# Assays:
# Assay type in all cases: cell-based, mouse
# NF-κB activation = assay: Electrophoretic mobility shift assay for NFκB
# Method: To assess NFκB activation in the nuclear extracts, EMSA was carried out using the procedure described by Y. Li, S. Li, Y. Han, J. Liu, J. Zhang, F. Li, Y. Wang, X. Liu, L. Yao, Eur. J. Pharmacol. 591 (2008) 252-258. In brief, nuclear extracts from untreated and RANKL-treated RAW 264.7 cells were incubated with the 32P-end-labeled 45-mer double-stranded NFκB oligonucleotide ([…] protein with 16 fM DNA) from the HIV long terminal repeat, 5′-[…]-3′(boldface indicates NFκB binding sites), for 30 min at 37° C. The DNA-protein complex formed was separated from free oligonucleotides on 6.6% native polyacrylamide gels. The dried gels were visualized with a Storm 820 molecular imager (Amersham, Piscataway, N.J., USA), and radioactive bands were quantified using a densitometer and Image Quant software ([…]).
# IκBα = assay: Western blot for IκBα degradation and phosphorylation
# Method: (§1) To determine protein expression levels, the cytoplasmic and whole cell extracts were prepared and were fractionated using 10% sodium dodecyl sulphate polyacrylamide gel electrophoresis (SDSPAGE). After electrophoresis, the proteins were transferred to nitrocellulose membranes, blotted with the relevant antibodies, and detected with enhanced chemiluminescence reagent (GE Healthcare, Piscataway, N.J.).
# RAW 264.7 cells [1] = assay: Cell proliferation assay (MTT); details: 1, 2 or 5 mM calebin A, days 1, 3 and 5
# Method: The effects of calebin A on the proliferation of RAW 264.7 cells were determined by measuring mitochondrial dehydrogenase activity with 3-[4,5-dimethylthiazol-2-yl]-2,5-diphenyl tetrazolium bromide (MTT) as the substrate as described in B. Sung, S. Prasad, V. R. Yadav, S. C. Gupta, S. Reuter, N. Yamamoto, A. Murakami, B. B. Aggarwal, PloS One 8 (2013) e64118. In brief, 3000 RAW264.7 cells (in 0.1 ml media) per well were incubated with various concentrations of calebin A, in triplicate, in 96-well plates at 37° C. for 1, 3, or 5 days. At each interval, MTT solution was added to each well, and the plates were incubated for 2 h at 37° C. An extraction buffer (100 mM) comprised of 20% sodium dodecyl sulphate (SDS) and 50% dimethyl formamide was added, and the cells were incubated overnight at 37° C. to dissolve the formazan formed during the reaction. The absorbance of the coloured product was then measured at 570 nm using a 96-well multiscanner (MRX Revelation, Dynex Technologies, Chantilly, Va.).
# [2] = tested on: RANK and c-Fms expression; assay: Immunoblot for M-CSF-induced osteoclast differentiation markers; details: 50 mM calebin A 8 h, 20 ng/mL M-CSF 24 h
# Method: as §1
# Further to examine the possible role of calebin A in the regulation of osteoclast differentiation in early stage, the RAW 264.7 cells were pre-treated with calebin A and induced by M-CSF for 24 h.
# [3] = tested on: RAW 264.7 cells incubated in the presence of MDA-MB-231 cells; assay: Osteoclastogenesis induced by co-culture with MDA-MB-231 breast cancer cells (TRAP staining); details: calebin A 5 mM, co-incubated 5 days
# Method: (§2) To determine the effects of calebin A on RANKL-induced osteoclast differentiation, the RAW264.7 cells were cultured at a density of 5×10^3 cells per well in 24-well plates and allowed to adhere overnight. The medium was then replaced and the cells were treated with 5 nM RANKL for 5 days. After the incubation, the cells were subjected to TRAP staining using leukocyte acid phosphatase kit. For co-culture experiments with cancer cells, RAW 264.7 cells were seeded at a density of 5×10^3 cells per well and allowed to adhere overnight. U266 or MDA-MB-231 cells, at a density of 1×10^3 cells per well, were added to the RAW 264.7 cells the following day. The wells were treated with calebin A, and co-cultured for 5 days before being subjected to TRAP staining. For conditioned medium experiments, RAW 264.7 cells were seeded at a density of 5×10^3 cells per well and allowed to adhere overnight. The following day, the medium was replaced with ⅘ of RAW 264.7 medium (DMEM/F12) plus ⅕ of conditioned medium from MDA-MB-231 or U266 cells. For that procedure, the supernatant of cultured cancer cells that had been centrifuged was used. Finally, the RAW264.7 cells were cultured for 5 days and subjected to TRAP staining and an electrophoretic mobility shift assay (EMSA).
# [4] = tested on: RAW 264.7 cells incubated in the presence of U266 cells; assay: Osteoclastogenesis induced by co-culture with U266 multiple myeloma cells (TRAP staining); details: calebin A 5 mM, co-incubated 5 days
# Method: as §2
# RAW 264.7 cells [5] = assay: Osteoclast differentiation assay, RANKL-induced (TRAP staining)
# Method: as §2
# [6] = tested on: p65 transfected RAW 264.7 cells; assay: RANKL-induced osteoclastogenesis after transfection of p65 plasmid; details: 5 mM calebin A, 5 nM RANKL, 5 days
# Method: To determine the role of NF-κB/p65 expression on calebin A-induced inhibition osteoclastogenesis, RAW 264.7 cells (5×10^5 cells/well) were plated in 6-well plates and transiently transfected by the calcium phosphate method with pNF-κB ([…]) and control plasmid pCMVFLAG1 DNA for 24 h. The medium was then replaced, and the cells were treated with RANKL (5 nM) and or calebin A (5 mM) for 5 days. All cells were subjected to TRAP staining using the leukocyte acid phosphatase kit.
# [7] = tested on: NFATc1, TRAP, cathepsin K and calcitonin R expression; assay: Western blot for RANKL-induced osteoclastogenesis-related marker expression
# Method: as §1
# NFATc1 plays a major role in the regulation of osteoclastogenesis. […] Basically, activation and nuclear translocation of NFATc1 and osteoclast differentiation are mediated by the expression of large number of marker genes, including TRAP, cathepsin K and calcitonin R, regulated by NFATc1. These genes are activated by the RANKL-mediated signalling pathway. Therefore, the effect of calebin A on the expression of RANKL-induced osteoclastogenesis related marker genes, were also examined.
# ERK1/2 phosphorylation = assay: Western blot for phospho-ERK1/2; details: calebin A pretreatment 8 h, RANKL 10 nM
# Method: as §1
# [8] = calebin A 5 mM, measured on day 5
smiles,measurement,setting,value
COc1cc(/C=C/C(=O)COC(=O)/C=C/c2ccc(O)c(OC)c2)ccc1O [Calebin A],NF-κB activation without RANKL (EMSA),NF-κB activation; 50 mM calebin A without RANKL for 8 h,No effect on the activation of NF-κB
same,"RANKL-induced NF-κB activation (EMSA), dose dependence","NF-κB activation; dose of 50 mM, 8 h pretreatment, RANKL 30 min",completely suppressed NF-κB activation
same,RANKL-induced NF-κB activation (EMSA),"NF-κB activation; pretreated with various concentrations for 8 h or 50 mM for various times, then RANKL 10 nM 30 min",completely abrogated RANKL-induced NF-κB activation
same,IκBα phosphorylation at serines 32 and 36 induced by RANKL and ALLN co-treatment,"IκBα; 50 mM calebin A 8 h, ALLN 30 min, RANKL 10 nM 15 min",inhibited the induction of phosphorylation
same,"RANKL-induced IκBα degradation (cytoplasmic, western blot)","IκBα; 50 mM calebin A 8 h pretreatment, 10 nM RANKL",complete inhibition of IκBα degradation
same,IκBα phosphorylation by calebin A alone,"IκBα; calebin A alone, no RANKL",did not induce phosphorylation of IκBα
same,RANKL-induced IκBα phosphorylation,"IκBα; calebin A pretreatment (8 h), 10 nM RANKL",phosphorylation was completely inhibited
same,Proliferation of RAW 264.7 cells (MTT),RAW 264.7 cells [1],did not significantly affect the proliferation of RAW 264.7 cells
same,M-CSF-induced expression of RANK,[2],downmodulate M-CSF-induced expression of RANK
same,c-Fms expression,[2],no significant variation
same,MDA-MB-231 cell-induced differentiation of RAW264.7 cells into osteoclasts,[3],inhibited this differentiation
same,U266 cell-induced differentiation of RAW264.7 cells into osteoclasts,[4],A similar pattern was observed
same,"Number of TRAP-positive osteoclasts, time course","RAW 264.7 cells [5]; RANKL 5 nM plus calebin A for 3, 4 or 5 days",decreased the number of TRAP-positive osteoclasts in a dose-dependent manner
same,"Osteoclast formation, calebin A added 1-2 days after RANKL stimulation",RAW 264.7 cells [5]; [8],substantially inhibited osteoclast formation
same,"Osteoclast formation, calebin A added at days 3 and 4 after RANKL exposure",RAW 264.7 cells [5]; [8],no longer prevented osteoclast formation
same,Inhibition of TRAP-positive osteoclast number at highest dose,"RAW 264.7 cells [5]; dose of 5 mM, all time points (3, 4, 5 days)",strongest inhibition
same,RANKL induced osteoclastogenesis in cells transfected with control plasmid,[6],almost completely inhibited
same,RANKL induced osteoclastogenesis in p65 transfected RAW 264.7 cells,[6],minimally inhibited
same,"RANKL-induced NFATc1, TRAP, cathepsin K and calcitonin R expression","[7]; 50 mM calebin A 8 h, 10 nM RANKL 24 h","inhibits the RANKL-induced NFATc1, TRAP, cathepsin K and calcitonin R expression"
same,RANKL-induced NFATc1 expression,"[7]; 50 mM calebin A 8 h pretreatment, 10 nM RANKL 24 h",abolished the RANKL-induced NFATc1 expression
same,"Expression of TRAP, cathepsin K and calcitonin R with calebin A alone","[7]; calebin A alone, no RANKL",no effect of calebin A alone
same,RANKL-induced ERK1/2 phosphorylation,ERK1/2 phosphorylation,did not inhibit the RANKL-induced activation of ERK phosphorylation
